These results are taken from patent publication US20250320193A1, “OXOISOINDOLINYL SUBSTITUTED PIPERIDINEDIONE DERIVATIVE AND USE THEREOF” (GLUETACS THERAPEUTICS (SHANGHAI) CO., LTD., priority 2022, published 2025).

A value given as a limit tells only on which side of the number the result lay.

Chain of human Cereblon WT GST-tagged protein (Q96SW2 whole entry): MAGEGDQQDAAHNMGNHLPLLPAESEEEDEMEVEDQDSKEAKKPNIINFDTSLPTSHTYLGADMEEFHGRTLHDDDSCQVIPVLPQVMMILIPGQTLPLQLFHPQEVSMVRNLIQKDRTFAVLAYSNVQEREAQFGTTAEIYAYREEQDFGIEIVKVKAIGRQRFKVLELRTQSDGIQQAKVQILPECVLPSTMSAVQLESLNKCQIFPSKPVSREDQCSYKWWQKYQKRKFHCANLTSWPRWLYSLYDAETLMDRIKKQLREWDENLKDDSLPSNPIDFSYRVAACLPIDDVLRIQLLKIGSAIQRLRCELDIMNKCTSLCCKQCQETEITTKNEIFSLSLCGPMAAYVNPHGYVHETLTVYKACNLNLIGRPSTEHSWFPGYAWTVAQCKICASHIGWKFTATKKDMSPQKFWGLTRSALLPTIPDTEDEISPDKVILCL

For this assay, the target named is human Cereblon WT GST-tagged protein (Homo sapiens (Human), UniProt Q96SW2). Briefly: CRBN-binding affinity, HTRF (CEREBLON BINDING kit, CISBIO). As to conditions: HTRF inhibitory activity. As for the experimental part: I. Determination of CRBN-binding affinity of compounds of the present disclosure:
The CEREBLON BINDING kits (specification: 10,000 tests; product number: Catalog #64BDCRBNPEH; CISBIO company) was used to determine the CRBN binding ability of the compounds to be tested through a HTRF method (homogeneous time-resolved fluorescence). The specific methods are as follows: • 1. […] Then, 2.5 μL of human Cereblon WT GST-tagged protein solution was added to each well. Finally, 5 μL of the thoroughly mixed Thalidomide-Red reagent and GST Eu antibody working solution were added to each of the aforementioned wells. […] The blank control wells were sequentially added with 2.5 μL of diluent #9 (1X) solution, 2.5 μL of PROTAC binding buffer, and 5 μL of thoroughly mixed Thalidomide-Red reagent and GST Eu antibody working solution. • 4.
The corresponding CRBN binding inhibition rate was calculated using the following method: […]
OD 620 nmcompound is the absorbance value of each well of the compounds to be tested of the present disclosure at an emission wavelength of 620 nm. […] OD 620 nmcontrol is the absorbance value of the blank control well at an emission wavelength of 620 nm. […] OD 620 nmStd0 is the absorbance value of the solvent control well at an emission wavelength of 620 nm.
By IC50 is commonly meant the concentration that inhibits the measured activity by half. A lower IC50 goes with greater potency in that assay. Compound `O=C1CCC(N2Cc3cc(CN4CC5CCC(C4)N5C(c4ccccc4)c4ccccc4)cc(F)c3C2=O)C(=O)N1` (stereo not shown) [GT-05897, 3-(5-((8-benzhydryl-3,8-diazabicyclo[3.2.1]octan-3-yl)methyl)-7-fluoro-1-oxoisoindolin-2-yl)piperidine-2,6-dione] displayed an IC50 of 500 to 1000 nM.

Turning to `O=C1CCC(N2Cc3cc(CN4CC5(CCN(C(c6ccccc6)c6ccccc6)CC5)C4)ccc3C2=O)C(=O)N1` (stereo not shown) [GT-05901, 3-(5-((7-benzhydryl-2,7-diazaspiro[3.5]nonan-2-yl)methyl)-1-oxoisoindolin-2-yl)piperidine-2,6-dione], the IC50 was under 500 nM.

In the case of `O=C1CCC(N2Cc3c(ccc(CN4CC5(CCN(C(c6ccccc6)c6ccccc6)CC5)C4)c3F)C2=O)C(=O)N1` (stereo not shown) [GT-05902, 3-(5-((7-benzhydryl-2,7-diazaspiro[3.5]nonan-2-yl)methyl)-4-fluoro-1-oxoisoindolin-2-yl)piperidine-2,6-dione], the IC50 lay within 500 to 1000 nM.

Compound `O=C1CCC(N2Cc3cc(CN4CC5(CCN(C(c6ccccc6)c6ccccc6)CC5)C4)c(F)cc3C2=O)C(=O)N1` (stereo not shown) [GT-05903, 3-(5-((7-benzhydryl-2,7-diazaspiro[3.5]nonan-2-yl)methyl)-6-fluoro-1-oxoisoindolin-2-yl)piperidine-2,6-dione] yielded an IC50 of 500 to 1000 nM.

As to `O=C1CCC(N2Cc3cc(CN4CC5(CCN(C(c6ccccc6)c6ccccc6)CC5)C4)cc(F)c3C2=O)C(=O)N1` (stereo not shown) [GT-05904, 3-(5-((7-benzhydryl-2,7-diazaspiro[3.5]nonan-2-yl)methyl)-7-fluoro-1-oxoisoindolin-2-yl)piperidine-2,6-dione], the half-inhibitory concentration (IC50) was 500 to 1000 nM.

The compound `O=C1CCC(N2Cc3cc(C(=O)N4C5CC4CN(C(c4ccccc4)c4ccccc4)C5)cc(F)c3C2=O)C(=O)N1` (stereo not shown) [GT-05916, 3-(5-(3-benzhydryl-3,6-diazabicyclo[3.1.1]heptane-6-carbonyl)-7-fluoro-1-oxoisoindolin-2-yl)piperidine-2,6-dione] yielded an IC50 of under 500 nM.

For `O=C1CCC(N2C(=O)c3ccc(C(=O)N4C5CC4CN(C(c4ccccc4)c4ccccc4)C5)cc3C2=O)C(=O)N1` (stereo not shown) [GT-05918, 5-(3-benzhydryl-3,6-diazabicyclo[3.1.1]heptane-6-carbonyl)-2-(2,6-dioxopiperidin-3-yl) isoindoline-1,3-dione], the IC50 lay within 1000 to 1900 nM.

In turn, `CC1CN(C(c2ccccc2)c2ccccc2)CC(C)N1C(=O)c1cc(F)c2c(c1)CN(C1CCC(=O)NC1=O)C2=O` (stereo not shown) [GT-05921, 3-(5-(4-benzhydryl-2,6-dimethylpiperazine-1-carbonyl)-7-fluoro-1-oxoisoindolin-2-yl)piperidine-2,6-dione] registered an IC50 of 500 to 1000 nM.

Compound `O=C1CCC(N2C(=O)c3cc(F)c(N4CC5CCC4CN5C(c4ccccc4)c4ccccc4)cc3C2=O)C(=O)N1` (stereo not shown) [GT-05936, 5-(5-benzhydryl-2,5-diazabicyclo[2.2.2]octan-2-yl)-2-(2,6-dioxopiperidin-3-yl)-6-fluoroisoindoline-1,3-dione] gave an IC50 of 500 to 1000 nM.

Regarding `O=C1CCC(N2Cc3cc(CN4C[C@H]5C[C@@H]4CN5C(c4ccccc4)c4ccccc4)c(F)cc3C2=O)C(=O)N1` (stereo partly drawn) [GT-05958, 3-(5-(((1R,4R)-5-benzhydryl-2,5-diazabicyclo[2.2.1]heptan-2-yl)methyl)-6-fluoro-1-oxoisoindolin-2-yl)piperidine-2,6-dione], the IC50 is 500 to 1000 nM.

In turn, `O=C1CCC(N2Cc3cc(CN4CC5CCC4CN5C(c4ccccc4)c4ccccc4)cc(F)c3C2=O)C(=O)N1` (stereo not shown) [GT-05964, 3-(5-((5-benzhydryl-2,5-diazabicyclo[2.2.2]octan-2-yl)methyl)-7-fluoro-1-oxoisoindolin-2-yl)piperidine-2,6-dione] registered an IC50 of 500 to 1000 nM.

With `O=C1CCC(N2Cc3cc(CN4CCC5(CCN(C(c6ccccc6)c6ccccc6)CC5)C4)ccc3C2=O)C(=O)N1` (stereo not shown) [GT-05969, 3-(5-((8-benzhydryl-2,8-diazaspiro[4.5]decan-2-yl)methyl)-1-oxoisoindolin-2-yl)piperidine-2,6-dione], the IC50 was in the range of 1000 to 1900 nM.

The compound `O=C1CCC(N2Cc3cc(CN4CCC5(CCN(C(c6ccccc6)c6ccccc6)CC5)C4)cc(F)c3C2=O)C(=O)N1` (stereo not shown) [GT-05972, 3-(5-((8-benzhydryl-2,8-diazaspiro[4.5]decan-2-yl)methyl)-7-fluoro-1-oxoisoindolin-2-yl)piperidine-2,6-dione] came in with an IC50 of 1000 to 1900 nM.

On to `O=C1CCC(N2Cc3cc(C(=O)N4C[C@@H]5C[C@H]4CN5C(c4ccccc4)c4ccccc4)ccc3C2=O)C(=O)N1` (stereo partly drawn) [GT-05977, 3-(5-((1S,4S)-5-benzhydryl-2,5-diazabicyclo[2.2.1]heptane-2-carbonyl)-1-oxoisoindolin-2-yl)piperidine-2,6-dione], for which the IC50 is 500 to 1000 nM.

Take `O=C1CCC(N2Cc3cc(C(=O)N4C[C@@H]5C[C@H]4CN5C(c4ccccc4)c4ccccc4)cc(F)c3C2=O)C(=O)N1` (stereo partly drawn) [GT-05978, 3-(5-((1S,4S)-5-benzhydryl-2,5-diazabicyclo[2.2.1]heptane-2-carbonyl)-7-fluoro-1-oxoisoindolin-2-yl)piperidine-2,6-dione]: the IC50 lay in the range of 1000 to 1900 nM.

Take `O=C1CCC(N2Cc3cc(C(=O)N4CC5CCC(C4)N5C(c4ccccc4)c4ccccc4)cc(F)c3C2=O)C(=O)N1` (stereo not shown) [GT-05981, 3-(5-(8-benzhydryl-3,8-diazabicyclo[3.2.1]octane-3-carbonyl)-7-fluoro-1-oxoisoindolin-2-yl)piperidine-2,6-dione]: the IC50 lay in the range of 500 to 1000 nM.

`O=C1CCC(N2Cc3cc(C(=O)N4C5CCC4CN(C(c4ccccc4)c4ccccc4)C5)ccc3C2=O)C(=O)N1` (stereo not shown) [GT-05983, 3-(5-(3-benzhydryl-3,8-diazabicyclo[3.2.1]octane-8-carbonyl)-1-oxoisoindolin-2-yl)piperidine-2,6-dione] displayed an IC50 of 500 to 1000 nM.

For the compound `O=C1CCC(N2Cc3c(C(=O)N4CCN(C(c5ccc(Cl)cc5)c5ccc(Cl)cc5)CC4)cccc3C2=O)C(=O)N1` (stereo not shown) [GT-05985, 3-(4-(4-(bis(4-chlorophenyl)methyl)piperazine-1-carbonyl)-1-oxoisoindolin-2-yl)piperidine-2,6-dione], the IC50 fell in the range of 500 to 1000 nM.

Compound `O=C1CCC(N2Cc3cc(C(=O)N4C[C@H]5C[C@@H]4CN5C(c4ccccc4)c4ccccc4)ccc3C2=O)C(=O)N1` (stereo partly drawn) [GT-05990, 3-(5-((1R,4R)-5-benzhydryl-2,5-diazabicyclo[2.2.1]heptane-2-carbonyl)-1-oxoisoindolin-2-yl)piperidine-2,6-dione] gave a half-maximal inhibitory concentration (IC50) of under 500 nM.

The compound `O=C1CCC(N2Cc3cc(C(=O)N4C[C@H]5C[C@@H]4CN5C(c4ccccc4)c4ccccc4)cc(F)c3C2=O)C(=O)N1` (stereo partly drawn) [GT-05991, 3-(5-((1R,4R)-5-benzhydryl-2,5-diazabicyclo[2.2.1]heptane-2-carbonyl)-7-fluoro-1-oxoisoindolin-2-yl)piperidine-2,6-dione] registered an IC50 of under 500 nM.

On to `O=C1CCC(N2Cc3cc(CN4CCC5(CC4)CCN(C(c4ccccc4)c4ccccc4)CC5)ccc3C2=O)C(=O)N1` (stereo not shown) [GT-06002, 3-(5-((9-benzhydryl-3,9-diazaspiro[5.5]undecan-3-yl)methyl)-1-oxoisoindolin-2-yl)piperidine-2,6-dione], for which the IC50 is 500 to 1000 nM.

In the case of `O=C1CCC(N2Cc3c(ccc(CN4CCC5(CC4)CCN(C(c4ccccc4)c4ccccc4)CC5)c3F)C2=O)C(=O)N1` (stereo not shown) [GT-06024, 3-(5-((9-benzhydryl-3,9-diazaspiro[5.5]undecan-3-yl)methyl)-4-fluoro-1-oxoisoindolin-2-yl)piperidine-2,6-dione], the IC50 was in the range of 500 to 1000 nM.
